Data on six compounds can be found in PubChem BioAssay AID1963867 (Molecular Pharmacology Branch, DTP, NCI, 2024).

Molecules are shown by their SMILES. Several values for one entry are separate records, joined by “and”; a condition that tells them apart may be missing. Equal values may be shown once. Activity calls are given as the source filed them. How the source made its calls: active means viability on the fitted dose curve at most 10% of control; inactive means the rest. A value given as a limit tells only on which side of the number the result lay.

What is called IC50 is the midpoint of a concentration-inhibition curve. What is called viability, T/C is the ratio of treated to control.

The subject of the experiment is KRAS-mutant PDC tumor spheroid with HUVEC/MSC, viability. Put plainly: Anticancer human tumor 327498-153-R-J2-PDC patient-derived uterine carcinosarcoma cell line growth inhibition [KRAS2]. Conditions: for viability, T/C: stronger effect = lower value. In a few lines: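 Combination screen of spheroid viability in tumor-cell co-cultures with endothelial (HUVEC) and mesenchymal stem cell stroma. Each agent was tested in half-log dilutions, topping at clinical Cmax or at 10 microM without a known Cmax.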

Setting [1] is: curve of first compound, second compound 0.1 µM.
[2] abbreviates: curve of first compound, second compound 0.316 µM.
Where [3] appears, read: curve of first compound, second compound 1 µM.
[4] abbreviates: curve of first compound, second compound 3.16 µM.
The mark [5] stands for this setting: curve of first compound, second compound 10 µM.
Where [6] appears, read: second compound 0.1 µM, first compound 0.0316 µM.
Setting [7] is: second compound 0.1 µM, first compound 0.1 µM.
[8] abbreviates: second compound 0.1 µM, first compound 0.316 µM.
Setting [9] is: second compound 0.1 µM, first compound 1 µM.
Where [10] appears, read: second compound 0.1 µM, first compound 3.16 µM.
The mark [11] stands for this setting: second compound 0.1 µM, first compound 10 µM.
The mark [12] stands for this setting: second compound 0.316 µM, first compound 0.0316 µM.
The mark [13] stands for this setting: second compound 0.316 µM, first compound 0.1 µM.
The mark [14] stands for this setting: second compound 0.316 µM, first compound 0.316 µM.
Where [15] appears, read: second compound 0.316 µM, first compound 1 µM.
Where [16] appears, read: second compound 0.316 µM, first compound 3.16 µM.
The mark [17] stands for this setting: second compound 0.316 µM, first compound 10 µM.
Where [18] appears, read: second compound 1 µM, first compound 0.0316 µM.
The mark [19] stands for this setting: second compound 1 µM, first compound 0.1 µM.
Where [20] appears, read: second compound 1 µM, first compound 0.316 µM.
Where [21] appears, read: second compound 1 µM, first compound 1 µM.
The mark [22] stands for this setting: second compound 1 µM, first compound 3.16 µM.
Setting [23] is: second compound 1 µM, first compound 10 µM.
[24] abbreviates: second compound 3.16 µM, first compound 0.0316 µM.
The mark [25] stands for this setting: second compound 3.16 µM, first compound 0.1 µM.
The mark [26] stands for this setting: second compound 3.16 µM, first compound 0.316 µM.
The mark [27] stands for this setting: second compound 3.16 µM, first compound 1 µM.
[28] abbreviates: second compound 3.16 µM, first compound 3.16 µM.
[29] abbreviates: second compound 3.16 µM, first compound 10 µM.
The mark [30] stands for this setting: second compound 10 µM, first compound 0.0316 µM.
Where [31] appears, read: second compound 10 µM, first compound 0.1 µM.
Setting [32] is: second compound 10 µM, first compound 0.316 µM.
The mark [33] stands for this setting: second compound 10 µM, first compound 1 µM.
The mark [34] stands for this setting: second compound 10 µM, first compound 3.16 µM.
Setting [35] is: second compound 10 µM, first compound 10 µM.
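Wherever IC50 is given: spheroids exposed to agents for seven days before reading.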
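Wherever viability, T/C is given: spheroids exposed to agents for seven days before reading; 100% = DMSO vehicle wells so lower means fewer viable cells.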

Regarding `COc1cc2nccc(Oc3ccc(NC(=O)C4(C(=O)Nc5ccc(F)cc5)CC4)cc3)c2cc1OC` + COc1cc2nc(C)nc(NC(C)c3cc(N)cc(C(F)(F)F)c3)c2cc1OC1CCOC1, the half-inhibitory concentration (IC50) reads like this: under setting [1], 689 nM; under setting [2], 534 nM; under setting [3], 379 nM; under setting [4], 385 nM; under setting [5], less than 31.6 nM. For the same compound, the viability, T/C was 73.8% under setting [6]; 82.3% under setting [7]; 74.6% under setting [8]; 26.7% under setting [9]; 0.88% under setting [10]; 87% under setting [11]. The viability, T/C was 68.3% under setting [12]; 60.8% under setting [13]; 64.5% under setting [14]; 28.7% under setting [15]; 0.85% under setting [16]; 68.5% under setting [17]. Further, the viability, T/C was 62.9% under setting [18]; 54% under setting [19]; 53.9% under setting [20]; 22.9% under setting [21]; 0.96% under setting [22]; 63.1% under setting [23]. In addition, the viability, T/C is, setting by setting: under setting [24], 62.5%; under setting [25], 57.3%; under setting [26], 54.2%; under setting [27], 22.1%; under setting [28], 0.52%; under setting [29], 67.3%. Besides, the viability, T/C by setting is: under setting [30], 50.6%; under setting [31], 44.8%; under setting [32], 40.5%; under setting [33], 12.1%; under setting [34], 0.37%; under setting [35], 57.9%.
Consider `CC1COCCN1c1cc(-c2ccnn2C)c2ccnc(-c3ccn[nH]3)c2n1` (centres undefined) + CNCc1ccccc1-c1csc(C(C)Nc2nc(C)nc3cc(OC)c(OC)cc23)c1, for which the half-inhibitory concentration (IC50) is, setting by setting: under setting [1], 23.5 nM; under setting [2], 17.9 nM; under setting [3], 15 nM; under setting [4], less than 10 nM; under setting [5], less than 10 nM. Also, the viability, T/C by setting is: (second compound 0.1 µM, first compound 0.01 µM) 80%; under setting [6], 39.5%; under setting [7], 9.19%; under setting [8], 5.57%; under setting [9], 5.53%; under setting [10], 5.04%. Moreover, the viability, T/C (second compound 0.316 µM, first compound 0.01 µM) is 66.6%; the viability, T/C under setting [12] is 33.8%; the viability, T/C under setting [13] was 11.5%; the viability, T/C under setting [14] was 5.05%; the viability, T/C under setting [15] is 5.87%; the viability, T/C under setting [16] is 5.3%. For the same compound, the viability, T/C is, setting by setting: (second compound 1 µM, first compound 0.01 µM) 62.9%; under setting [18], 26.7%; under setting [19], 9.86%; under setting [20], 4.09%; under setting [21], 3.98%; under setting [22], 1.03%. In addition, the viability, T/C runs as follows: (second compound 3.16 µM, first compound 0.01 µM) 0.09%; under setting [24], 0.07%; under setting [25], 0.05%; under setting [26], 0.71%; under setting [27], 0.03%; under setting [28], 0.13%. Also, the viability, T/C runs as follows: (second compound 10 µM, first compound 0.01 µM) 0.13%; under setting [30], 0.13%; under setting [31], 0.13%; under setting [32], 0.12%; under setting [33], 0.12%; under setting [34], 0.21%.
On to `Cn1nccc1Nc1nccc(-c2cc3c(s2)C(C)(C)N(CCN2CCOCC2)C3=O)n1` + COc1cc2nc(C)nc(NC(C)c3cc(N)cc(C(F)(F)F)c3)c2cc1OC1CCOC1, for which the 50% inhibitory concentration (IC50) under setting [1] was found to be 851 nM; the IC50 under setting [2] came to 560 nM; the IC50 under setting [3] was 826 nM; the half-maximal inhibitory concentration (IC50) under setting [4] amounted to 531 nM; the IC50 under setting [5] was determined as 47.2 nM. Moreover, the viability, T/C runs as follows: under setting [6], 72.8%; under setting [7], 73.2%; under setting [8], 57.6%; under setting [9], 46.1%; under setting [10], 44%; under setting [11], 31.9%. In addition, the viability, T/C under setting [12] was 82.8%; the viability, T/C under setting [13] is 67%; the viability, T/C under setting [14] was 52.5%; the viability, T/C under setting [15] is 47%; the viability, T/C under setting [16] was 37.9%; the viability, T/C under setting [17] was 31.6%. Further, the viability, T/C runs as follows: under setting [18], 67.8%; under setting [19], 65.9%; under setting [20], 53.7%; under setting [21], 49.4%; under setting [22], 41.1%; under setting [23], 33%. Further, the viability, T/C runs as follows: under setting [24], 64.4%; under setting [25], 57%; under setting [26], 55.2%; under setting [27], 45%; under setting [28], 41.7%; under setting [29], 36.6%. Further, the viability, T/C is 52.7% under setting [30]; 46.4% under setting [31]; 44.1% under setting [32]; 43.8% under setting [33]; 34.7% under setting [34]; 25.4% under setting [35].
For `COc1cc2nc(C)nc(NC(C)c3cc(N)cc(C(F)(F)F)c3)c2cc1OC1CCOC1` (centres undefined), the outcome (compound 0.316 µM) was inactive. Also, the viability, T/C (compound 3.16 µM) was 65.2% [middle of 17 runs]. Moreover, the half-maximal inhibitory concentration (IC50) is, setting by setting: (compound alone, run of 07/12/2021) > 10000 nM and 9500 nM; (compound alone, run of 07/19/2021) > 10000 nM and 8250 nM and 8160 nM; (compound alone, run of 07/26/2021) more than 10000 nM.
On to `CC(C)n1nc(-c2ccc3oc(N)nc3c2)c2c(N)ncnc21`, for which the viability, T/C reads like this: (compound 0.000316 µM) 99.8% [middle of 5 runs]; (compound 0.001 µM) 92.1% [middle of 5 runs]; (compound 0.00316 µM) 77.7% [middle of 5 runs]; (compound 0.01 µM) 49.9% [middle of 5 runs]; (compound 0.0316 µM) 16% [middle of 5 runs]; (compound 0.1 µM) 9.59% [middle of 5 runs]. In addition, where the note is “curve of compound”, the IC50 is 9.11 nM [middle of 5 runs].
In the case of `CC(=O)Nc1cccc(-n2c(=O)n(C3CC3)c(=O)c3c(Nc4ccc(I)cc4F)n(C)c(=O)c(C)c32)c1`, the viability, T/C runs as follows: (compound 0.0001 µM) 97.2% [middle of 5 runs]; (compound 0.000316 µM) 92.1% [middle of 5 runs]; (compound 0.001 µM) 75.5% [middle of 5 runs]; (compound 0.00316 µM) 63.5% [middle of 5 runs]; (compound 0.01 µM) 56.3% [middle of 5 runs]; (compound 0.0316 µM) 36.9% [middle of 5 runs]. In addition, the concentration for half-maximal inhibition (IC50) (curve of compound) is 11.7 nM [middle of 5 runs].
